From patent US11407979B2, “Intermittent starvation techniques to prolong functional lifetime of liver cells in culture” (Colorado State University Research Foundation, priority 2017, dated 2022)

How the values were obtained:
[1] = test system: primary human hepatocytes in micropatterned co-cultures (MPCCs); experiment: Hepatocyte island area (phase contrast) and polarization (CDCFDA bile canaliculi staining) in MPCCs; assay type: cell-based; details: metformin treated versus non-starved control MPCCs
[2] = test system: 3T3-J2 fibroblasts; experiment: Fibroblast density in MPCCs, live cell imaging of nuclei (Hoechst 33342); assay type: cell-based, murine; details: metformin treated MPCCs, 4 weeks of culture
[3] = test system: primary human hepatocytes in micropatterned co-cultures (MPCCs)

Compound | identified as toxic (albumin or urea below 50% of DMSO control) [3] | TC50 values for albumin production, non-starved cells compared with starved cells [3] | TC50 values for urea production, non-starved cells compared with starved cells [3] | further results
CN(C)C(=N)N=C(N)N [metformin] | – | – | – | hepatocyte island area [1]: not significantly higher; hepatocyte polarization [1]: not significantly higher; fibroblast numbers [2]: did not change
Clc1ccc(COC(Cn2ccnc2)c2ccc(Cl)cc2Cl)c(Cl)c1 (stereo not drawn) [miconazole] | toxic | – | – | –
CN1C(C(=O)Nc2ccccn2)=C(O)c2ccccc2S1(=O)=O [piroxicam] | – | similar | similar | –
C[C@]12C=CC(=O)C=C1CC[C@@H]1[C@@H]2C(=O)C[C@@]2(C)[C@H]1CC[C@]2(O)C(=O)CO [prednisone] | toxic | – | – | –
Cc1c(C)c2c(c(C)c1O)CCC(C)(COc1ccc(CC3SC(=O)NC3=O)cc1)O2 (stereo not drawn) [troglitazone] | – | similar | similar | –
